Source: patent US20130059850A1, “AZA-INDOLE DERIVATIVES USEFUL AS MODULATORS OF FAAH” (MERCK SHARP & DOHME CORP., priority 2010, published 2013)

Assays:
[1] = target: T1, human FAAH (Fatty Acid Amide Hydrolase) (Homo sapiens, UniProt O00519); assay: FAAH enzyme assay on CHO cell lysate expressing human FAAH (human LY), AAMCA fluorescent substrate; type: biochemical; conditions: human FAAH_CHO cell lysate
T1 construct: The full length FAAH was subcloned into the mammalian expression vector, pcDEF.neo, using XbaI and EcoRI restriction sites; expressed in transfected cells
T1 sequence (O00519 1-579): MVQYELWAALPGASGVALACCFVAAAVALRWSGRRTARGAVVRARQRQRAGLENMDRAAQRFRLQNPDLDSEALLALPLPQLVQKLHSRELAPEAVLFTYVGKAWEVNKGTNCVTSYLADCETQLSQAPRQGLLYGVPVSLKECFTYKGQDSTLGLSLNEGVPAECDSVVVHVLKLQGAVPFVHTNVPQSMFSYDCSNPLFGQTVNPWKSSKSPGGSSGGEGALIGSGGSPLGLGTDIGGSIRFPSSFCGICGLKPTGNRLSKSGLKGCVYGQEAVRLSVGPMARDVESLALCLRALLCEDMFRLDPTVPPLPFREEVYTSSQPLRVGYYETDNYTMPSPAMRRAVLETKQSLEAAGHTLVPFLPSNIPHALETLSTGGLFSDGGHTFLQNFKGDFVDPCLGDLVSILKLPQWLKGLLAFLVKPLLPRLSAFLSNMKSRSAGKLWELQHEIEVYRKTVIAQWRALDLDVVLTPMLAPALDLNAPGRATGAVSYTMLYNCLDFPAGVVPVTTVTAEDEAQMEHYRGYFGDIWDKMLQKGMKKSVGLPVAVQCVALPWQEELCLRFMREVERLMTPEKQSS
Outline: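 CHO cell lysate expressing full-length human FAAH, preincubated with compound 15 min at 22-25° C. in pH 8.0 phosphate buffer with 200 mM KCl and 0.1% fatty-acid-free BSA. 1 μM AAMCA final, 1-3 h at room temperature; 7-amino-4-methylcoumarin release read by fluorescence (Ex 360, Em 460 nm).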

[2] = target: T1, human FAAH (Fatty Acid Amide Hydrolase); assay: FAAH whole cell assay on CHO cells expressing human FAAH (human WC), AAMCA fluorescent substrate; type: cell-based; conditions: human FAAH_CHO whole cell
Outline: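 CHO cells stably expressing full-length human FAAH, harvested with enzyme-free dissociation and resuspended at 4×10^4 cells/assay (96-well) or 1×10^4 (384-well) in 50 mM phosphate pH 8.0, 1 mM EDTA, 200 mM KCl, 0.2% glycerol, 0.1% BSA.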

| SMILES | IC50 [1] [nM] | IC50 [2] [nM] |
| --- | --- | --- |
| Clc1ccc(Sc2c(-c3ccccn3)[nH]c3ncccc23)cc1 [Example F9] | 339 | 1110 |
| Clc1ccc(Sc2c(-c3ccc4[nH]ncc4c3)[nH]c3ncccc23)cc1 [Example I3, 5-{3-[(4-chlorophenyl)sulfanyl]-1H-pyrrolo[2,3-b]pyridin-2-yl}-1H-indazole] | 2.15 | 10.7 |
| OC(c1ccccc1)c1[nH]c2ncccc2c1Sc1ccc(Cl)cc1 (centres unmarked) [Example J4, {3-[(4-chlorophenyl)sulfanyl]-1H-pyrrolo[2,3-b]pyridin-2-yl}(phenyl)methanol] | 5870 | 10000 |
| Clc1ccc(Sc2c(CNCc3ccccc3)[nH]c3ncccc23)cc1 [Example J6, N-benzyl-1-{3-[(4-chlorophenyl)sulfanyl]-1H-pyrrolo[2,3-b]pyridin-2-yl}methanamine] | 132 | 400 |
| Clc1ccc(Sc2c(CNC3CCOCC3)[nH]c3ncccc23)cc1 [Example J7] | 260 | 1140 |
| OC1CCN(Cc2[nH]c3ncccc3c2Sc2ccc(Cl)cc2)CC1 [Example J8] | 80.4 | 433 |
| OC(c1ccc2c(c1)OCO2)c1[nH]c2ncccc2c1Sc1ccc(Cl)cc1 (centres unmarked) [Example J9] | 2600 | 3330 |
| COc1ccc(C(O)c2[nH]c3ncccc3c2Sc2ccc(Cl)cc2)cc1 (centres unmarked) [Example J10] | 818 | 8410 |
| CC(C)C(O)c1[nH]c2ncccc2c1Sc1ccc(Cl)cc1 (centres unmarked) [Example J11] | 695 | 5890 |
| CC1(C)CC(NCc2[nH]c3ncccc3c2Sc2ccc(Cl)cc2)CC(C)(C)O1 [Example J12] | 59 | 202 |
